Results as given in patent US11957758B2, “Pharmaceutical composition of docetaxel conjugate and preparation method” (SHENZHEN SALUBRIS PHARMACEUTICALS CO. LTD, priority 2017, dated 2024).

Key:
4T1 breast cancer [1] = test: 4T1 breast cancer lung metastasis model of mice, experiment (3); type: in vivo, BALB/c mice; settings: for increase in tumor weight compared with the blank control group / increase in tumor volume compared with the blank control group: tail vein once a week for 4 weeks, IA1 5 and 10 mg/kg, DTX 2.85 mg/kg, DTX 2.85+MDA-1 2.26 mg/kg, DTX 2.85+MDA-1-linker 2.21 mg/kg; for increase in tumor weight compared with the blank control group: D28, FIG. 5B; for increase in tumor volume compared with the blank control group: FIG. 5A
Experimental: […]. Grouping and administration: BALB/c mice were inoculated with 4T1 breast cancer cells in the mammary fat pad. The day of inoculation was DO, and mice were administered in groups on the fourth day after inoculation. The experiment consisted of six groups: • (1) solvent control group (blank control group), • (2) IA1 5 mg/kg group, • (3) IA1 10 mg/kg group, • (4) DTX (Docetaxel) 2.85 mg/kg group, • (5) DTX (2.85 mg/kg)+MDA-1 (2.26 mg/kg) group, • (6) DTX (2.85 mg/kg)+MDA-1-linker (2.21 mg/kg) group. • (4), (5) and (6) are positive control groups.
(§1) Each group had 10 animals. Mice were administered by tail vein injection once a week for 4 weeks. Animal weight and tumor volume were monitored during the administration. Animals were weighed every 2-3 days, and the long diameter and short diameter of breast tumors were measured with a vernier caliper. The tumor size was calculated by the formula: (½)×long diameter×(short diameter)^2. The experiment was terminated on the 28th day (D28). The mice were sacrificed by cervical dislocation after eyeball blood collection. The breast tumor and lung were weighed. The number of metastatic nodules on the lung surface was counted.

[2] = Stability of IA1 in different pH environments (HPLC main peak purity); type: physicochemical
Experimental: The method for measuring the impurity content in the following examples is as follows, with reference to 0512 liquid chromatography method in the “Chinese Pharmacopoeia” 2015 Edition Volume IV. 20 μl of the system suitability solution, the reference solution, and the test solution are injected into the liquid chromatograph respectively, and the chromatograms are recorded. Calculation formula: each
AT is the peak area of each impurity in the test solution; AS is the average peak area of the main peak in the reference solution; CT is the concentration (mg/ml) of the test solution; Cs is docetaxel conjugate concentration (mg/ml) in the reference solution; F is the correction factor for each impurity.
HPLC conditions: An octadecyl bonded silica gel column (C18, 4.6×150 mm, 3.5 μm); gradient elution, phase A: acetonitrile: 0.1% phosphoric acid=45:55, phase B: acetonitrile; detection wavelength: 225 nm; flow rate: 1.0 ml/min; column temperature: 40° C.

4T1 breast cancer [3] = test: 4T1 breast cancer lung metastasis model of mice, experiment (2); type: in vivo, BALB/c mice; settings: for increase in breast tumor weight compared with the blank control group / increase in the number of metastatic nodules on the lung surface compared with the blank control group: tail vein once a week for 4 weeks, D28, DTX 5.7 mg/kg, DTX 5.7+MDA-1 4.53 mg/kg, DTX 5.7+MDA-1-linker 4.43 mg/kg; for increase in breast tumor weight compared with the blank control group: FIG. 4A
Experimental: 0.1 mL 4T1 cells (1.5×10^5/per mouse) were inoculated in the fourth mammary fat pad of female BALB/c mice.
Grouping and administration: BALB/c mice were inoculated with 4T1 breast cancer cells in the mammary fat pad. The day of inoculation was DO, and mice were administered in groups on the fourth day after inoculation. The experiment consisted of five groups: • (1) solvent control group (blank control group), • (2) IA1 10 mg/kg group, • (3) DTX (Docetaxel) 5.7 mg/kg group, • (4) DTX (5.7 mg/kg)+MDA-1 (4.53 mg/kg) group, • (5) DTX (5.7 mg/kg)+MDA-1-linker (4.43 mg/kg) group. • (3), (4) and (5) are positive control groups.
as §1, with “counted. The results of tumor weight are shown in FIG. 4A, and the results of the number of metastatic nodules on the lung surface are shown in FIG. 4B.” for “counted.”

4T1 breast cancer [4] = test: 4T1 breast cancer lung metastasis model of mice, experiment (1); type: in vivo, BALB/c mice; settings: for breast tumor weight compared to the blank control group / number of metastatic nodules on the lung surface compared to the blank control group: tail vein once a week for 4 weeks, D28, IA1 10 mg/kg, DTX 5.7 mg/kg, MDC 10 mg/kg (equimolar); for breast tumor weight compared to the blank control group: FIG. 3A; for number of metastatic nodules on the lung surface compared to the blank control group: FIG. 3B
Experimental: • (1) Cell culture and tumor inoculation: 4T1 cells were cultured in 1640 medium (Gibco) containing 10% fetal bovine serum (Hyclone Corp, USA), 1% glutamine and 1% penicillin-streptomycin. The 4T1 cells in logarithmic growth phase were collected and the cell concentration was adjusted to 1.5×10^6/mL. 0.1 mL 4T1 cells (1.5×10^5/per mouse) were inoculated in the fourth mammary fat pad of female BALB/c mice.
Grouping and administration: BALB/c mice were inoculated with 4T1 breast cancer cells in the mammary fat pad. The day of inoculation was DO. Mice were administered in groups on the fourth day after inoculation. The experiment consisted of four groups: • (1) solvent control group (blank control group), • (2) IA1 10 mg/kg group, • (3) DTX (Docetaxel) 5.7 mg/kg group, • (4) MDC 10 mg/kg group. • (3) and (4) are positive control groups.
as §1, with “counted. The results of tumor weight are shown in FIG. 3A, and the results of the number of metastatic nodules on the lung surface are shown in FIG. 3B.” for “counted.”

With `CC(=O)O[C@@]12CO[C@@H]1C[C@H](O)[C@@]1(C)C(=O)[C@H](O)C3=C(C)[C@@H](OC(=O)[C@H](OC(=O)CCC(=O)NCCCC[C@H](NC(=O)CC[C@@H](NC(=O)[C@H](C)NC(=O)/C=C/c4ccc(F)cc4Cl)C(N)=O)C(=O)O)[C@@H](NC(=O)OC(C)(C)C)c4ccccc4)C[C@@](O)([C@@H](OC(=O)c4ccccc4)[C@H]21)C3(C)C` [IA1] the “difference in the inhibitory effects on tumor volume and weight versus positive control groups” value (4T1 breast cancer [1]; IA1 versus docetaxel, docetaxel+MDA-1, docetaxel+MDA-1-linker, FIGS. 5A and 5B) was “significant difference”, the “increase in tumor weight compared with the blank control group” value (4T1 breast cancer [1]) was “significantly inhibited” and the “increase in tumor volume compared with the blank control group” value (4T1 breast cancer [1]) was “significantly inhibited”. The “Decrease in purity of main peak within 14 h (%)” value (from here on “Decrease in purity … (%)”) ([2]; Acetonitrile/pH 3.0 buffer) was 0.11%, the “Decrease in purity … (%)” value ([2]; Acetonitrile/pH 4.0 buffer) was 0.19% and the “Decrease in purity … (%)” value ([2]; Acetonitrile/pH 5.0 buffer) was 0.19%. For the same compound, the “Decrease in purity … (%)” value ([2]; Acetonitrile/pH 6.0 buffer) was 0.51%, the “Decrease in purity … (%)” value ([2]; Acetonitrile/pH 7.0 buffer) was 7.38% and the “Decrease in purity … (%)” value ([2]; Acetonitrile/pH 8.0 buffer) was 22.55%. For the same compound, the “increase of inhibitory effect on lung surface metastatic nodules compared with docetaxel+MDA-1” value (4T1 breast cancer [3]; IA1 10 mg/kg versus DTX 5.7 mg/kg+MDA-1 4.53 mg/kg) was 27.9%, the “increase of inhibitory effect on lung surface metastatic nodules compared with docetaxel+MDA-1+linker” value (4T1 breast cancer [3]; IA1 10 mg/kg versus DTX 5.7 mg/kg+MDA-1-linker 4.43 mg/kg) was 18.6% and the “difference in the inhibitory effects on lung surface nodules versus positive control groups” value (4T1 breast cancer [3]; IA1 10 mg/kg, FIG. 4B) was “significant difference”. The “increase in breast tumor weight compared with the blank control group” value (4T1 breast cancer [3]; IA1 10 mg/kg) was “significantly inhibited”, the “increase in the number of metastatic nodules on the lung surface compared with the blank control group” value (4T1 breast cancer [3]; IA1 10 mg/kg, FIG. 4B) was “significantly inhibited” and the “inhibitory effects on tumor and cancer metastasis” value (4T1 breast cancer [4]; same experiment, compared with IA1) was “the most excellent”. The “breast tumor weight compared to the blank control group” value (4T1 breast cancer [4]) was “significantly inhibited” and the “number of metastatic nodules on the lung surface compared to the blank control group” value (4T1 breast cancer [4]) was “significantly inhibited”.
With `CC(=O)O[C@@]12CO[C@@H]1C[C@H](O)[C@@]1(C)C(=O)[C@H](O)C3=C(C)[C@@H](OC(=O)[C@H](O)[C@@H](NC(=O)OC(C)(C)C)c4ccccc4)C[C@@](O)([C@@H](OC(=O)c4ccccc4)[C@H]21)C3(C)C` [docetaxel] the “increase in tumor weight compared with the blank control group” value (4T1 breast cancer [1]) was “significantly inhibited”, the “increase in tumor volume compared with the blank control group” value (4T1 breast cancer [1]) was “significantly inhibited” and the “increase in breast tumor weight compared with the blank control group” value (4T1 breast cancer [3]; IA1 10 mg/kg) was “significantly inhibited”. The “increase in the number of metastatic nodules on the lung surface compared with the blank control group” value (4T1 breast cancer [3]; IA1 10 mg/kg, FIG. 4B) was “significantly inhibited”, the “breast tumor weight compared to the blank control group” value (4T1 breast cancer [4]) was “significantly inhibited” and the “number of metastatic nodules on the lung surface compared to the blank control group” value (4T1 breast cancer [4]) was “significantly inhibited”.
